According to patent publication US20020086865A1, “Use of growth hormone secretagogues for stimulating or increasing appetite” (priority 2000, published 2002):
Square brackets hold non-standard residues; d marks the D form. Peptide text beside a SMILES is read from it. dTrp(2-Me) = Cc1[nH]c2ccccc2c1C[C@@H](N)C(=O)O; d2Nal = N[C@H](Cc1ccc2ccccc2c1)C(=O)O

What was measured:
satiated rats = conditions: s.c.; cited from earlier work
free-feeding rats = conditions: intracerebroventricular administration; cited from earlier work
[1] = tested on: healthy, young male subjects; conditions: 100 mg single oral dose in a solution of water, fasted state; four subjects on active
Method: The test compound or placebo was administered orally in a solution of water to the subjects in a fasted state. The doses evaluated were 0.3, 1, 3, 10, 30 and 100 mg of the test compound or placebo. Each participant was studied at only one dose level.

[2] = orally active; cited from earlier work
[3] = tested on: young women with anorexia nervosa; conditions: cited from earlier work
rats = conditions: intracerebroventricular; cited from earlier work

Cc1[nH]c2ccccc2c1C[C@@H](NC(=O)[C@@H](N)Cc1cnc[nH]1)C(=O)N[C@@H](C)C(=O)N[C@@H](Cc1c[nH]c2ccccc12)C(=O)N[C@H](Cc1ccccc1)C(=O)N[C@@H](CCCCN)C(N)=O [hexarelin] (H-H[dTrp(2-Me)]AW[dF]K-NH2)
GH release (satiated rats): dose dependently stimulated | feeding behavior (satiated rats): dose dependently stimulated

C[C@H](NC(=O)[C@@H](Cc1ccc2ccccc2c1)NC(=O)[C@@H](C)N)C(=O)N[C@@H](Cc1c[nH]c2ccccc12)C(=O)N[C@H](Cc1ccccc1)C(=O)N[C@@H](CCCCN)C(N)=O [KP-102] (H-[dA][d2Nal]AW[dF]K-NH2)
food intake (free-feeding rats): increased food intake

CC(C)(N)C(=O)N[C@H](COCc1ccc(F)cc1F)C(=O)N1CCC2=NN(CC(F)(F)F)C(=O)[C@]2(Cc2ccccn2)C1.O=C(O)C(O)C(O)C(=O)O [test compound, (L)-(+)-tartaric acid salt of 2-amino-N-(1-(R)-(2,4-difluoro-benzyloxymethyl)-2-oxo-2-(3-oxo-3a-(R)-pyridin-2-ylmethyl-2-(2,2,2-trifluoro-ethyl)-2,3,3a,4,6,7-hexahydro-pyrazolo-[4,3-c]pyridin-5-yl)-ethyl)-2-methyl-propionamide]
subjects who self-reported feeling hungry (case report forms) [1]: two of the four subjects

CC(C)(N)C(=O)N[C@H](COCc1ccccc1)C(=O)N1CCC2(CC1)CN(S(C)(=O)=O)c1ccccc12 [MK-677]
diet-induced catabolism [2]: reverses diet-induced catabolism

recombinant growth hormone: recombinant growth hormone
IGF-1 levels [3]: normalizes IGF-1 levels | body weight [3]: increases body weight | eating behavior [3]: improves eating behavior

GHRP-6
eating (rats): stimulated eating | plasma growth hormone responses (rats): without affecting plasma growth hormone responses | GH release (satiated rats): dose dependently stimulated | feeding behavior (satiated rats): dose dependently stimulated
